IC50 data for 33 compounds are collected here from US20170291905A1, “ARGININE […] INHIBITORS AND USES THEREOF” (Epizyme, Inc., priority 2014, published 2017).

In general, IC50 refers to the concentration at which inhibition is half-maximal. Read a low IC50 as higher potency.

Counter-ions that a name gives are not always drawn. Where only a bound is given, the exact number is not on record here.

T1 sequence (Q99873 with tags, fused parts or gaps): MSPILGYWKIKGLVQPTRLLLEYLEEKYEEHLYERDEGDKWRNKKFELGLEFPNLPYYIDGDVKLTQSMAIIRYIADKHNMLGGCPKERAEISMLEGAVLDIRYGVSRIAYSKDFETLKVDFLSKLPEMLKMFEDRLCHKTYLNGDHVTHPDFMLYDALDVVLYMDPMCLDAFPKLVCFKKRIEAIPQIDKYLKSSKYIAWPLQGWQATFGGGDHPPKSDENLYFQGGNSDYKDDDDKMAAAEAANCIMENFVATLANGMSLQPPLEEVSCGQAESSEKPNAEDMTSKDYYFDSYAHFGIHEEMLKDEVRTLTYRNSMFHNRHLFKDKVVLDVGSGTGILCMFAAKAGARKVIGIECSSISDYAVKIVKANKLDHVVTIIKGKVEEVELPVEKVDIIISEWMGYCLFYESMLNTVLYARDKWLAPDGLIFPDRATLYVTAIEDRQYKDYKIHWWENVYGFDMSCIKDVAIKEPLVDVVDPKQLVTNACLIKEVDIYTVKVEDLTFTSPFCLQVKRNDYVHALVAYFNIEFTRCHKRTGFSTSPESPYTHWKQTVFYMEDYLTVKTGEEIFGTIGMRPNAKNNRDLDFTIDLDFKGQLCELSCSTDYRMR

This test concerns the target T1, full-length human PRMT1 isoform 1 (GST-tagged) (Homo sapiens, UniProt Q99873).
T1 construct: GST-tagged PRMT1 was eluted with 50 mM Tris, 2 mM glutathione, pH 7.8, dialysed in buffer A and concentrated; made in house; host or cells: High Five insect cells (baculovirus)
The test is described as follows: PRMT1 biochemical assay (3H-SAM Flashplate, histone H4 36-50 peptide). As to conditions: 0.5 nM PRMT1, 30 min preincubation, 20 nM peptide. An excerpt:
S-adenosylmethionine (SAM), S-adenosylhomocysteine (SAH), bicine, Tween20, dimethylsulfoxide (DMSO), bovine skin gelatin (BSG), and Tris(2-carboxyethyl)phosphine hydrochloride solution (TCEP) were purchased from Sigma-Aldrich at the highest level of purity possible. ^3H-SAM was purchase from American Radiolabeled Chemicals with a specific activity of 80 Ci/mmol. 384-well streptavidin Flashplates were purchased from PerkinElmer.
Peptide representative of human histone H4 residues 36-50 was synthesized with an N-terminal linker-affinity tag motif and a C-terminal amide cap by 21st Century Biochemicals. The peptide was purified by high-performance liquid chromatography (HPLC) to greater than 95% purity and confirmed by liquid chromatography mass spectrometry (LC-MS). The sequence was Biot-Ahx-[…]-amide (SEQ ID NO.:1).
Full-length human PRMT1 isoform 1 (NM_001536.5) transcript clone was amplified from an HEK 293 cDNA library, incorporating flanking 5′ sequence encoding a FLAG tag ([…]) (SEQ ID NO.:2) fused directly to Met 1 of PRMT1. The amplified gene was subcloned into pFastBacI (Life Technologies) modified to encode an N-terminal GST tag and a TEV cleavage sequence
Recombinant baculovirus were generated according to Bac-to-Bac kit instructions (Life Technologies). Protein over-expression was accomplished by infecting exponentially growing High Five insect cell culture at 1.5×10^6 cell/ml with 1:100 ratio of virus. Infections were carried out at 27° C. for 48 hours, harvested by centrifugation, and stored at −80° C. for purification.
GST-tagged PRMT1 was eluted with 50 mM Tris, 2 mM glutathione, pH 7.8, dialysed in buffer A and concentrated to 1 mg/mL. The purity of recovered protein was 73%. Reference: Wasilko, D. J. and S. E. Lee: “TIPS: titerless infected-cells preservation and scale-up” Bioprocess J., 5 (2006), pp. 29-32.
General Procedure for PRMT1 Enzyme Assays on Peptide Substrates.
The assays were all performed in a buffer consisting of 20 mM Bicine (pH=7.6), 1 mM TCEP, 0.005% BSG, and 0.002% Tween 20, prepared on the day of use. Compounds in 100% DMSO (1 ul) were spotted into a polypropylene 384-well V-bottom plates (Greiner) using a Platemate Plus outfitted with a 384-channel head (Thermo Scientific). DMSO (1 ul) was added to Columns 11, 12, 23, 24, rows A-H for the maximum signal control and 1 ul of SAH, a known product and inhibitor of PRMT1, was added to columns 11, 12, 23, 24, rows I-P for the minimum signal control. A cocktail (40 ul) containing the PRMT1 enzyme was added by Multidrop Combi (Thermo-Fisher). The compounds were allowed to incubate with PRMT1 for 30 min at room temperature, then a cocktail (10 ul) containing SAM and peptide was added to initiate the reaction (final volume=51 ul). The final concentrations of the components were as follows: PRMT1 was 0.5 nM, ^3H-SAM was 200 nM, non-radiolabeled SAM was 1.5 uM, peptide was 20 nM, SAH in the minimum signal control wells was 1 mM, and the DMSO concentration was 2%. The assays were stopped by the addition of non-radiolabeled SAM (10 ul) to a final concentration of 300 uM, which dilutes the ^3H-SAM to a level where its incorporation into the peptide substrate is no longer detectable. 50 ul of the reaction in the 384-well polypropylene plate was then transferred to a 384-well Flashplate and the biotinylated peptides were allowed to bind to the streptavidin surface for at least 1 hour before being washed once with 0.1% Tween20 in a Biotek ELx405 plate washer. The plates were then read in a PerkinElmer TopCount plate reader to measure the quantity of ^3H-labeled peptide bound to the Flashplate surface, measured as disintegrations per minute (dpm) or alternatively, referred to as counts per minute (cpm).
Where dpm=disintegrations per minute, cmpd=signal in assay well, and min and max are the respective minimum and maximum signal controls. […]
With `CCC1(CC)C[C@]2(CC[C@@H](c3n[nH]cc3CN(C)CCNC)CC2)OC1=O` [compound 34, (5r,8r)-3,3-diethyl-8-(4-((methyl(2-(methylamino)ethyl)amino)methyl)-1H-pyrazol-3-yl)-1-oxaspiro[4.5]decan-2-one], the IC50 was determined as 15.2 nM.

As to `CNCCN(C)Cc1nn[nH]c1[C@H]1CC[C@@]2(CC1)CC(C)(C)CO2` [compound 67], it took 11.5 nM to reach half-maximal inhibition (IC50).

For the compound `CNCCN(C)Cc1nn[nH]c1[C@H]1CC[C@]2(CC1)CC(C)(C)CO2` [compound 89], the IC50 amounted to 59.7 nM.

Compound `CC[C@]12CC[C@](CC)(C[C@H](c3n[nH]cc3CN(C)CCNC)C1)O2` [compound 37, N1-((3-((1R,3r,5S)-1,5-diethyl-8-oxabicyclo[3.2.1]octan-3-yl)-1H-pyrazol-4-yl)methyl)-N1,N2-dimethylethane-1,2-diamine] yielded a half-inhibitory concentration (IC50) of 25.2 nM.

Regarding `CNCCN(C)Cc1c[nH]nc1C1C[C@H](C(=O)NCCOC)C(C)(C)[C@H](C(=O)NCCOC)C1` (stereo partly drawn) [compound 13], the IC50 is > 10000 nM.

`CCN(C)C(=O)C1CC(c2n[nH]cc2CN(C)CCNC)CC(C(=O)NCCC(C)C)C1(C)C` (stereo not drawn) [compound 14, N1-ethyl-N3-isopentyl-N1,2,2-trimethyl-5-(4-((methyl(2-(methylamino)ethyl)amino)methyl)-1H-pyrazol-3-yl)cyclohexane-1,3-dicarboxamide]: the IC50 was > 10000 nM.

Regarding `CNCCN(C)Cc1c[nH]nc1[C@H]1CC[C@@]2(CCN(CCC(C)C)C2=O)CC1` [compound 11, (5r,8r)-2-isopentyl-8-(4-((methyl(2-(methylamino)ethyl)amino)methyl)-1H-pyrazol-3-yl)-2-azaspiro[4.5]decan-1-one], the IC50 came out at 6.55 nM.

The compound `CNCCN(C)Cc1sc(C)nc1[C@H]1CC[C@@]2(CC1)CC(C)(C)CO2` [compound 78] came in with a 50% inhibitory concentration (IC50) of 23 nM.

In turn, `CNCCN(C)Cc1c(C)noc1[C@H]1CC[C@@]2(CC1)CC(C)(C)CO2` [compound 113] showed a half-inhibitory concentration (IC50) of 79.5 nM.

For the compound `CNCCN(C)Cc1nn(C)nc1C1CCC2(CC1)CC(C)(C)CO2` (stereo not drawn) [compound 86], the IC50 came to 50.1 nM.

With `CNCCN(C)Cc1nccn1[C@H]1CC[C@]2(CC1)CC(C)(C)CO2` [compound 91], the IC50 turned out to be 1020 nM.

Turning to `Cc1[nH]nc([C@H]2CC[C@@]3(CC2)CC(C)(C)CO3)c1CN(C)CCN` [compound 51, N1-((3-((5s,8s)-3,3-dimethyl-1-oxaspiro[4.5]decan-8-yl)-5-methyl-1H-pyrazol-4-yl)methyl)-N1-methylethane-1,2-diamine], half-maximal inhibition (IC50) was put at 12 nM.

`CNCCN(C)Cc1nn(C)cc1[C@H]1CC[C@]2(CC1)CC(C)(C)CO2` [compound 103] registered an IC50 of 37.2 nM.

`CNCCN(C)Cc1c(C)noc1[C@H]1CC[C@]2(CC1)CC(C)(C)CO2` [compound 114] yielded a half-inhibitory concentration (IC50) of 121 nM.

`CCOCC1(COCC)CCC(c2n[nH]cc2CN(C)CCN(C)C)CC1` [compound 121] gave a concentration for half-maximal inhibition (IC50) of 38 nM.

Regarding `CNCCN(C)Cc1c[nH]nc1C1CCC(OCCCOC)C2(CCCC2)C1` (mixture of isomers) [compound 19, N1-((3-(10-(3-methoxypropoxy)spiro[4.5]decan-7-yl)-1H-pyrazol-4-yl)methyl)-N1,N2-dimethylethane-1,2-diamine dihydrochloride], the midpoint of inhibition, the IC50, lay at 11.1 nM.

The compound `CNCCN(C)Cc1c[nH]nc1[C@H]1CC[C@@]2(CCCOC2)CC1` [compound 5, N1-((3-((6r,9r)-2-oxaspiro[5.5]undecan-9-yl)-1H-pyrazol-4-yl)methyl)-N1,N2-dimethylethane-1,2-diamine] gave a half-inhibitory concentration (IC50) of 11.7 nM.

In turn, `CN(CCN)Cc1nn(C)cc1[C@H]1CC[C@@]2(CC1)CC(C)(C)CO2` [compound 80] displayed an IC50 of 5.83 nM.

`CNCCN(C)Cc1c[nH]nc1[C@H]1CC[C@]2(CCCOC2)CC1` [compound 4, N1-((3-((6s,9s)-2-oxaspiro[5.5]undecan-9-yl)-1H-pyrazol-4-yl)methyl)-N1,N2-dimethylethane-1,2-diamine] came in with an IC50 of 9.43 nM.

Compound `CNCCN(C)Cc1nocc1[C@H]1CC[C@@]2(CC1)CC(C)(C)CO2` [compound 117] yielded an IC50 of 51.3 nM.

`CN(CCN)Cc1c[nH]nc1[C@H]1CC[C@@]2(CC1)CC(C)(C)CO2` [compound 105] came in with an IC50 of 5.68 nM.

With `CNCCN(C)Cc1c[nH]nc1C1CC(COCC2CC2)CC(COCC2CC2)C1` (stereo not drawn) [compound 2], the IC50 turned out to be 69.2 nM.

Take `CNCCNCc1c[nH]nc1[C@H]1CC[C@]2(CC1)CC(C)(C)CO2` [compound 29, N1-((3-((5r,8r)-3,3-dimethyl-1-oxaspiro[4.5]decan-8-yl)-1H-pyrazol-4-yl)methyl)-N2-methylethane-1,2-diamine]: the IC50 worked out at 193 nM.

In turn, `CNCCN(C)Cc1c[nH]nc1C1CCC2(CCC(OC)CC2)CC1` (stereo not drawn) [compound 9, N1-((3-(9-methoxyspiro[5.5]undecan-3-yl)-1H-pyrazol-4-yl)methyl)-N1,N2-dimethylethane-1,2-diamine] came in with an IC50 of 8.7 nM.

As for `CNCCN(C)Cc1c[nH]nc1C1C[C@@H](C(=O)N(C)CC(C)C)C(C)(C)[C@H](C(=O)N(C)CC(C)C)C1` (stereo partly drawn) [compound 12], the 50% inhibitory concentration (IC50) was > 10000 nM.

The compound `CCC1(CC)CC2(CCC(c3n[nH]cc3CN(C)CCNC)CC2)N(C)C1=O` (stereo not drawn) [compound 22, 3,3-diethyl-1-methyl-8-(4-((methyl(2-(methylamino)ethyl)amino)methyl)-1H-pyrazol-3-yl)-1-azaspiro[4.5]decan-2-one] came in with an IC50 of 13.1 nM.

As to `CNCCN(C)Cc1c[nH]nc1[C@H]1CC[C@]2(CCCCO2)CC1` [compound 127, methyl([2-[methyl([3-[(6s,9r)-1-oxaspiro[5.5]undecan-9-yl]-1H-pyrazol-4-yl]methyl)amino]ethyl])amine bistrifluoroacetic acid salt], the IC50 came out at 7.33 nM.

`CCCOCC1(COCCC)CCC(c2n[nH]cc2CN(C)CCNC)CC1` [compound 36, N^1-((3-(4,4-bis(propoxymethyl)cyclohexyl)-1H-pyrazol-4-yl)methyl)-N^1,N^2-dimethylethane-1,2-diamine] had an IC50 of 7.93 nM.

`CNCCN(C)Cc1c[nH]nc1[C@H]1CC[C@H](COCC(F)(F)F)CC1` [compound 24, N1,N2-dimethyl-N1-((3-((1r,4r)-4-((2,2,2-trifluoroethoxy)methyl)cyclohexyl)-1H-pyrazol-4-yl)methyl)ethane-1,2-diamine] showed an IC50 of 12.4 nM.

In the case of `CNCCN(C)Cc1c[nH]nc1[C@@H]1CC[C@H](OCCCOC)C2(CCCC2)C1` (racemic) [compound 27, N1-((3-((7R,10S)-10-(3-methoxypropoxy)spiro[4.5]decan-7-yl)-1H-pyrazol-4-yl)methyl)-N1,N2-dimethylethane-1,2-diamine], the half-maximal inhibitory concentration (IC50) was determined as 6.58 nM.

For `CNCCN(C)Cc1c(C)[nH]nc1[C@H]1CC[C@@]2(CC1)CC(C)(C)CO2` [compound 57], the 50% inhibitory concentration (IC50) worked out at 25.8 nM.

As for `CNCCN(C)Cc1scnc1[C@H]1CC[C@]2(CC1)CC(C)(C)CO2` [compound 84], inhibition was half-maximal at 14 nM (IC50).

In turn, `CNCCNCc1c[nH]nc1[C@H]1CC[C@@]2(CC1)CC(C)(C)CO2` [compound 28, N1-((3-((5s,8s)-3,3-dimethyl-1-oxaspiro[4.5]decan-8-yl)-1H-pyrazol-4-yl)methyl)-N2-methylethane-1,2-diamine] gave an IC50 of 13.2 nM.
